From patent publication US12441754B2, “Galactoside inhibitor of galectins” (GALECTO BIOTECH AB, priority 2019, dated 2025) come the findings set out here.

One assay addresses Galectin-1 (Homo sapiens, UniProt P09382). The assay is described as follows: fluorescence anisotropy assay, compound as inhibitor of galectin / fluorescein tagged saccharide probe interaction. It is filed as binding. An excerpt: (§1) Anal. Biochem. 334: 36-47, (Sörme et al., 2004) and Monovalent interactions of Galectin-1 By Salomonsson, Emma; Larumbe, Amaia; Tejler, Johan; Tullberg, Erik; Rydberg, Hanna; Sundin, Anders; Khabut, Areej; Frejd, Torbjorn; Lobsanov, Yuri D.; Rini, James M.; et al, From Biochemistry (2010), 49(44), 9518-9532, (Salomonsson et al., 2010).
In general terms: Polarisation of emitted light reports the rotation of a fluorescent probe.

The next assay concerns the target Galectin-3 (Homo sapiens, UniProt P17931). The description is as above. It is filed as binding.
Text: as §1

Structures are written as SMILES.

Chain of Galectin-3 (P17931 whole entry): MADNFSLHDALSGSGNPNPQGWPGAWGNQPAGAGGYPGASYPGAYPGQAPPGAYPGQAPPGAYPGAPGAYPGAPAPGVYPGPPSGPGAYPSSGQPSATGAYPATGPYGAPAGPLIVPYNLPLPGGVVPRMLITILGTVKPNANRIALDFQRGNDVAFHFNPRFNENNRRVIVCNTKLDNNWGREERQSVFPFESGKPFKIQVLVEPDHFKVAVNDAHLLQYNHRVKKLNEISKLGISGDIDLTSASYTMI
Chain of Galectin-1 (P09382 whole entry): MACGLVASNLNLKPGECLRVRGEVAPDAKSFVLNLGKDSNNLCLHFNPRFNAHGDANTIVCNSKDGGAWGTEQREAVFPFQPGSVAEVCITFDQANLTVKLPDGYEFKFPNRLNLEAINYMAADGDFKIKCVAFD

Take `N#Cc1ncc(Cl)cc1S[C@H]1O[C@H](CO)[C@H](O)[C@H](n2cc(-c3csc(Cl)n3)nn2)[C@H]1O` [Example 70, 5-Chloro-2-cyanopyridin-3-yl 3-[4-(2-chlorothiazol-4-yl)-1H-1,2,3-triazol-1-yl]-3-deoxy-1-thio-α-D-galactopyranoside]: the Kd (commonly the equilibrium constant for the complex coming apart) on Galectin-1 was 330 nM; at Galectin-3, 0.42 µM.

With `CCO[C@@H]1[C@@H](n2cc(-c3nccs3)nn2)[C@@H](O)[C@@H](CO)O[C@@H]1Sc1cc(Cl)cnc1C#N` [Example 71, 5-Chloro-2-cyanopyridin-3-yl 3-deoxy-2-O-ethyl-3-[4-(2-thiazolyl)-1H-1,2,3-triazol-1-yl]-1-thio-α-D-galactopyranoside], the Kd was 120 nM on Galectin-1 and 3.6 µM at Galectin-3.

For the molecule `CCO[C@@H]1[C@@H](n2cc(-c3csc(N)n3)nn2)[C@@H](O)[C@@H](CO)O[C@@H]1Sc1cc(Cl)cnc1C#N` [Example 72, 5-Chloro-2-cyanopyridin-3-yl 3-[4-(2-aminothiazol-4-yl)-1H-1,2,3-triazol-1-yl]-3-deoxy-2-O-ethyl-1-thio-α-D-galactopyranoside], the Kd was found to be 440 nM on Galectin-1 and 3 µM on Galectin-3.

For the molecule `CO[C@@H]1[C@@H](n2cc(-c3csc(N)n3)nn2)[C@@H](O)[C@@H](CO)O[C@@H]1Sc1cc(Cl)ccc1C#N` [Example 73, 5-Chloro-2-cyanophenyl 3-[4-(2-aminothiazol-4-yl)-1H-1,2,3-triazol-1-yl]-3-deoxy-2-O-methyl-1-thio-α-D-galactopyranoside], the figures for the Kd on Galectin-1 and at Galectin-3 were 56 nM and 3.2 µM, respectively.

On to `Nc1nc(-c2cn([C@@H]3[C@@H](O)[C@@H](Sc4cc(Cl)cnc4-c4ncc[nH]4)O[C@H](CO)[C@@H]3O)nn2)cs1` [Example 74, 5-Chloro-2-(1H-imidazol-2-yl)pyridin-3-yl 3-[4-(2-aminothiazol-4-yl)-1H-1,2,3-triazol-1-yl]-3-deoxy-1-thio-α-D-galactopyranoside], for which the values for the Kd on Galectin-1 and at Galectin-3 were 360 nM and 11.3 µM, respectively.

On to `OC[C@H]1O[C@H](Sc2cc(Cl)cnc2-c2ncc[nH]2)[C@H](O)[C@@H](n2cc(-c3csc(O)n3)nn2)[C@H]1O` [Example 75, 5-Chloro-2-(1H-imidazol-2-yl)pyridin-3-yl 3-deoxy-3-[4-(2-hydroxythiazol-4-yl)-1H-1,2,3-triazol-1-yl]-1-thio-α-D-galactopyranoside], for which the Kd amounted to 130 nM on Galectin-1 and 7.7 µM on Galectin-3.

In the case of `CO[C@@H]1[C@@H](n2cc(-c3nc(Cl)cs3)nn2)[C@@H](O)[C@@H](CO)O[C@@H]1Sc1cc(Cl)cnc1-c1ccccn1` [Example 76, 5-Chloro-2-(pyridin-2-yl)-pyridin-3-yl 3-[4-(4-chlorothiazol-2-yl)-1H-1,2,3-triazol-1-yl]-3-deoxy-2-O-methyl-1-thio-α-D-galactopyranoside], the Kd on Galectin-1 was 10 nM; on Galectin-3 it was 0.15 µM.

Consider `Cc1cnc(C#N)c(S[C@H]2O[C@H](CO)[C@H](O)[C@H](n3cc(-c4nc(Cl)cs4)nn3)[C@H]2O)c1` [Example 77, 2-Cyano-5-methylpyridin-3-yl 3-[4-(4-chlorothiazol-2-yl)-1H-1,2,3-triazol-1-yl]-3-deoxy-1-thio-α-D-galactopyranoside], for which the Kd at Galectin-1 turned out to be 830 nM; at Galectin-3, 0.86 µM.

Turning to `Nc1nc(-c2cn([C@H]3[C@@H](O)[C@@H](CO)O[C@H](Sc4ccc(Cl)c(Cl)c4)[C@@H]3OCC(F)(F)F)nn2)cs1` [Example 78, 3,4-Dichlorophenyl 3-[4-(2-aminothiazol-4-yl)-1H-1,2,3-triazol-1-yl]-3-deoxy-2-O-(2,2,2-trifluoroethyl)-1-thio-α-D-galactopyranoside], the values for the Kd at Galectin-1 and at Galectin-3 were 520 nM and 7.2 µM, respectively.

As to `OC[C@H]1O[C@H](Sc2ccc(Cl)c(Cl)c2)[C@H](OCC(F)(F)F)[C@@H](n2cc(-c3csc(O)n3)nn2)[C@H]1O` [Example 79, 3,4-Dichlorophenyl 3-deoxy-2-O-(2,2,2-trifluoroethyl)-3-[4-(2-hydroxythiazol-4-yl)-1H-1,2,3-triazol-1-yl]-1-thio-α-D-galactopyranoside], the Kd stood at 460 nM at Galectin-1 and 6.8 µM on Galectin-3.

On to `C#Cc1cncc(S[C@H]2O[C@H](CO)[C@H](O)[C@H](n3cc(-c4nc(Cl)cs4)nn3)[C@H]2O)c1` [Example 80, 5-Ethynylpyridin-3-yl 3-[4-(4-chlorothiazol-2-yl)-1H-1,2,3-triazol-1-yl]-3-deoxy-1-thio-α-D-galactopyranoside], for which the Kd at Galectin-1 is 310 nM; on Galectin-3 it was 0.36 µM.

For the molecule `C#Cc1cncc(S[C@H]2O[C@H](CO)[C@H](O)[C@H](n3cc(-c4csc(N)n4)nn3)[C@H]2OC)c1` [Example 81, 5-Ethynylpyridin-3-yl 3-[4-(2-aminothiazol-4-yl)-1H-1,2,3-triazol-1-yl]-3-deoxy-2-O-methyl-1-thio-α-D-galactopyranoside], the Kd on Galectin-1 turned out to be 190 nM; on Galectin-3 it was 6.6 µM.

In the case of `CO[C@@H]1[C@@H](n2cc(-c3nc(Cl)cs3)nn2)[C@@H](O)[C@@H](CO)O[C@@H]1Sc1cncc(C#N)c1` [Example 82, 5-Cyanopyridin-3-yl 3-[4-(4-chlorothiazol-2-yl)-1H-1,2,3-triazol-1-yl]-3-deoxy-2-O-methyl-1-thio-α-D-galactopyranoside], the Kd came out at 170 nM at Galectin-1 and 0.52 µM at Galectin-3.

On to `CO[C@@H]1[C@@H](n2cc(-c3csc(O)n3)nn2)[C@@H](O)[C@@H](CO)O[C@@H]1Sc1cncc(C#N)c1` [Example 83, 5-Cyanopyridin-3-yl 3-deoxy-3-[4-(2-hydroxythiazol-4-yl)-1H-1,2,3-triazol-1-yl]-2-O-methyl-1-thio-α-D-galactopyranoside], for which the Kd at Galectin-1 came out at 150 nM; at Galectin-3, 5.7 µM.

As to `C#Cc1cnc(C#N)c(S[C@H]2O[C@H](CO)[C@H](O)[C@H](n3cc(-c4csc(N)n4)nn3)[C@H]2O)c1` [Example 84, 2-Cyano-5-ethynylpyridin-3-yl 3-[4-(2-aminothiazol-4-yl)-1H-1,2,3-triazol-1-yl]-3-deoxy-1-thio-α-D-galactopyranoside], the Kd at Galectin-1 amounted to 540 nM; on Galectin-3, 4.1 µM.

On to `C#Cc1cnc(C#N)c(S[C@H]2O[C@H](CO)[C@H](O)[C@H](n3cc(-c4csc(N)n4)nn3)[C@H]2OC)c1` [Example 85, 2-Cyano-5-ethynylpyridin-3-yl 3-[4-(2-aminothiazol-4-yl)-1H-1,2,3-triazol-1-yl]-3-deoxy-2-O-methyl-1-thio-α-D-galactopyranoside], for which the Kd on Galectin-1 turned out to be 110 nM; at Galectin-3 it was 7.7 µM.

Regarding `CCO[C@@H]1[C@@H](n2cc(-c3nc(Cl)cs3)nn2)[C@@H](O)[C@@H](CO)O[C@@H]1Sc1cc(Br)cnc1C#N` [Example 86, 5-Bromo-2-cyanopyridin-3-yl 3-[4-(4-chlorothiazol-2-yl)-1H-1,2,3-triazol-1-yl]-3-deoxy-2-O-ethyl-1-thio-α-D-galactopyranoside], the Kd at Galectin-1 is 22 nM; on Galectin-3, 0.17 µM.

For the molecule `CCO[C@@H]1[C@@H](n2cc(-c3csc(N)n3)nn2)[C@@H](O)[C@@H](CO)O[C@@H]1Sc1ccc(Cl)c(Cl)c1` [Example 87, 3,4-Dichlorophenyl 3-[4-(2-aminothiazol-4-yl)-1H-1,2,3-triazol-1-yl]-3-deoxy-2-O-ethyl-1-thio-α-D-galactopyranoside], the results for the Kd at Galectin-1 and on Galectin-3 were 110 nM and 5.5 µM, respectively.

As for `CCOC1C(n2cc(-c3csc(N)n3)nn2)[C@@H](O)C(CO)O[C@@H]1Sc1ccc(C#N)c(Cl)c1` (stereo partly drawn) [Example 88], the Kd at Galectin-1 was found to be 130 nM; on Galectin-3, 7.7 µM.

For `N#Cc1ccc(S[C@@H]2C[C@@H](n3cc(-c4csc(O)n4)nn3)[C@@H](O)[C@@H](CO)O2)cc1Cl` [Example 89, 3-Chloro-4-cyanophenyl 2,3-dideoxy-3-[4-(2-hydroxythiazol-4-yl)-1H-1,2,3-triazol-1-yl]-1-thio-α-D-galactopyranoside], the Kd at Galectin-1 was determined as 210 nM; at Galectin-3 it was 10.5 µM.

`CCO[C@@H]1[C@@H](n2cc(-c3nc(Cl)cs3)nn2)[C@@H](O)[C@@H](CO)O[C@@H]1Sc1cc(Br)cnc1C(=O)N(C)C` [Example 90, 5-Bromo-2-(N,N-dimethylcarbamoyl)pyridin-3-yl 3-[4-(4-chlorothiazol-2-yl)-1H-1,2,3-triazol-1-yl]-3-deoxy-2-O-ethyl-1-thio-α-D-galactopyranoside]: the Kd on Galectin-1 turned out to be 8.5 nM; at Galectin-3, 0.044 µM.

As for `C#Cc1cnc(C(=O)N(C)C)c(S[C@H]2O[C@H](CO)[C@H](O)[C@H](n3cc(-c4nc(Cl)cs4)nn3)[C@H]2OC)c1` [Example 91, 5-Ethynyl-2-(N,N-dimethylcarbamoyl)pyridin-3-yl 3-[4-(4-chlorothiazol-2-yl)-1H-1,2,3-triazol-1-yl]-3-deoxy-2-O-methyl-1-thio-α-D-galactopyranoside], the results for the Kd on Galectin-1 and on Galectin-3 were 24 nM and 0.051 µM, respectively.

In the case of `C#Cc1cnc(C(=O)N2CCC2)c(S[C@H]2OC(CO)[C@H](O)C(n3cc(-c4nc(Cl)cs4)nn3)C2OC)c1` (stereo partly drawn) [Example 92, 2-(N-Azetidinylcarbamoyl)-5-ethynylpyridin-3-yl 3-[4-(4-chlorothiazol-2-yl)-1H-1,2,3-triazol-1-yl]-3-deoxy-2-O-methyl-1-thio-α-D-galactopyranoside], the Kd was 32 nM at Galectin-1 and 0.099 µM at Galectin-3.

`CNC(=O)c1ncc(Cl)cc1S[C@H]1O[C@H](CO)[C@H](O)[C@H](n2cc(-c3nc(Cl)cs3)nn2)[C@H]1OC` [Example 93, 5-Chloro-2-(N-methylcarbamoyl)pyridin-3-yl 3-[4-(4-chlorothiazol-2-yl)-1H-1,2,3-triazol-1-yl]-3-deoxy-2-O-methyl-1-thio-α-D-galactopyranoside]: the Kd on Galectin-1 was 15 nM; at Galectin-3, 0.048 µM.
